Data as given in US10934298B2, “Substituted pyrazolo[1,5-a]pyrimidines for the treatment of medical disorders” (BIAL—BioTech Investments, Inc., priority 2016, dated 2021).

Molecular target: T1, glucocerebrosidase (Gcase) (Homo sapiens, UniProt P04062)
T1 construct: micellar solution containing 10 nM GCase and 100 nM saposin C
T1 sequence (P04062 40-536): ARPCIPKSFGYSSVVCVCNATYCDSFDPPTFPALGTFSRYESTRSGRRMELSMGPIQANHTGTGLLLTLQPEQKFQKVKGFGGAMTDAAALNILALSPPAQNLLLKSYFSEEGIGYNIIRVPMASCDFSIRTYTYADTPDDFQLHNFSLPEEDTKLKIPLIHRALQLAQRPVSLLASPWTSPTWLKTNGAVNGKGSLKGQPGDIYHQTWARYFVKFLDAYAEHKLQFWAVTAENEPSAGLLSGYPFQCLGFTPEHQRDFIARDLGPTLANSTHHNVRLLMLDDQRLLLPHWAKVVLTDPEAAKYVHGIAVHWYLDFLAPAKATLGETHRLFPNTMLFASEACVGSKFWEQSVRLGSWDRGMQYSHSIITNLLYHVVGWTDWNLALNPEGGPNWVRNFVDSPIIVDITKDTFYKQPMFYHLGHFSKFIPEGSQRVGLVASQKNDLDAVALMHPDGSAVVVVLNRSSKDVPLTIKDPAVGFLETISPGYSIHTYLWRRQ
Assay: Glucocerebrosidase (Gcase) activation assay with 4-methylumbelliferyl-beta-D-glucopyranoside substrate, saposin C and phosphatidylserine/triton micelles, fluorescence readout
Type: biochemical
Method: The ability of exemplary compounds to activate glucocerebrosidase (Gcase) was measured.
A 484 μL aliquot of a 1.0 mg/mL solution of phosphatidylserine (PS) (Sigma P7769) in chloroform was evaporated under a stream of nitrogen for 1 hour. The lipid film was dissolved over 4 minutes of vigorous vortexing in 40 mL of 176 mM K2HPO4/50 mM citric acid (pH 4.7) containing 7.5 μL of triton X-100, resulting in a mixed micellar preparation with a composition of 0.32 mM triton and 0.37 mol % PS. 4-Methylumbelliferyl-beta-D-glucopyranoside (ACROS-337025000) was dissolved in the micellar solution to a final concentration of 2 mM for use as the reaction substrate.
Test compounds were diluted to the desired concentrations with dimethylsulfoxide (DMSO) from 10 mM stocks, and 0.41 μL of the DMSO compound mixture was added to 100 μL of micellar solution containing 10 nM GCase and 100 nM saposin C (Enzo ALX-201-262-C050). Pre-incubation was allowed to occur for 30 minutes at room temperature, after which the reaction was initiated by combining 25 μL of substrate solution with 25 μL of compound/GCase/saposin mixture. The reaction proceeded for 15 minutes at room temperature and was stopped by adding 150 μL of 1M glycine, pH 12.5. The endpoint of the reaction was monitored by measuring fluorescence intensity (excitation: 365 nm; emission: 440 nm) on a SpectraMax i3 instrument (Molecular Devices). Test compounds were screened at 1.0 and 0.1 μM final concentration, and subsequent 8-point dose response curves were obtained using 3-fold dilutions from a maximum final concentration of 5 μM.

Compound	Percent Gcase Activation, 0.1 μM Test Compound (0.1 μM test compound, Table 3A)	Percent Gcase Activation, 1 μM Test Compound (1 μM test compound, Table 3A)	Percent Gcase Activation, 0.1 μM Test Compound (test compound at 0.1 μM)	Percent Gcase Activation, 1 μM Test Compound (test compound at 1.0 μM)	further results
Cc1cc(-c2cccc(C#N)c2)nc2c(C(=O)N[C@@H](C)C3CC3)cnn12 [III-70]	*** (greater than 20% Gcase activation)	+++ (Gcase activation greater than 60%)			
COc1cccc(-c2cc(C)n3ncc(C(=O)NC(C)C(F)(F)F)c3n2)c1 (centres unmarked) [III-55]	*** (greater than 20% Gcase activation)	+++ (Gcase activation greater than 60%)			
Cc1ncc(F)cc1-c1cc(C)n2ncc(C(=O)N[C@@H](C3CC3)C(F)(F)F)c2n1 [III-379]					Percent Gcase Activation, 0.1 μM Test Compound (0.1 μM test compound): ** (Gcase activation in the range of 10% up to 20%); Percent Gcase Activation, 1 μM Test Compound (1 μM test compound): +++ (Gcase activation greater than 60%)
COCc1cc(-c2ccc(F)cc2)nc2c(C(=O)N[C@@H](C)C3CC3)cnn12 [III-46]	* (less than 10% Gcase activation)	++ (Gcase activation in the range of 30% up to 60%)			
Cc1cc(C)n2ncc(C(=O)NC(CC(C)C)C3CC3)c2n1 (centres unmarked) [III-5]	*** (greater than 20% Gcase activation)	+++ (Gcase activation greater than 60%)			
COc1c(F)cccc1-c1cc(C)n2ncc(C(=O)NC(C)C(F)(F)F)c2n1 (centres unmarked) [III-140]			** (Gcase activation in the range of 10% up to 20%)	+++ (Gcase activation greater than 60%)	
Cc1cc(-c2cccc(-c3ncccn3)n2)nc2c(C(=O)NC(C3CC3)C(F)(F)F)cnn12 (centres unmarked) [III-175]			* (less than 10% Gcase activation)	+ (less than 30% Gcase activation)	
Cc1cc(N2CCCC(F)(F)C2)nc2c(C(=O)NC(C)C3CC3)cnn12 (centres unmarked) [III-61]	*** (greater than 20% Gcase activation)	+++ (Gcase activation greater than 60%)			
Cc1cc(-c2cncc(Cl)c2)nc2c(C(=O)N[C@H](C3CC3)C(F)(F)F)cnn12 [III-120]			*** (greater than 20% Gcase activation)	+++ (Gcase activation greater than 60%)	
Cc1cc(N2CCN(C(C)C)C2=O)nc2c(C(=O)N[C@H](C3CC3)C(F)(F)F)cnn12 [III-327]					Percent Gcase Activation, 0.1 μM Test Compound (0.1 μM test compound): ** (Gcase activation in the range of 10% up to 20%); Percent Gcase Activation, 1 μM Test Compound (1 μM test compound): +++ (Gcase activation greater than 60%)
Cc1cc(-c2cccnc2)nc2c(C(=O)N[C@H](C)c3ccc(Cl)cc3)cnn12 [III-37]	** (Gcase activation in the range of 10% up to 20%)	+++ (Gcase activation greater than 60%)			
Cc1cc(-c2cccc(Cl)n2)nc2c(C(=O)N[C@H](C)C3CC3)cnn12 [III-132]			** (Gcase activation in the range of 10% up to 20%)	+++ (Gcase activation greater than 60%)	
COc1c(C#N)cccc1-c1cc(C)n2ncc(C(=O)N[C@H](C)C3CC3)c2n1 [III-144]			* (less than 10% Gcase activation)	+ (less than 30% Gcase activation)	
Cc1cc(N2CCN(C(C)C)C2=O)nc2c(C(=O)NC(C)(C)C(F)(F)F)cnn12 [III-231]			* (less than 10% Gcase activation)	++ (Gcase activation in the range of 30% up to 60%)	
Cc1cc(-c2ncccc2F)nc2c(C(=O)NC(C3CC3)C(F)(F)F)cnn12 (centres unmarked) [III-203]			*** (greater than 20% Gcase activation)	+++ (Gcase activation greater than 60%)	
Cc1nc(-c2cc(C)n3ncc(C(=O)N[C@H](C4CC4)C(F)(F)F)c3n2)oc1C [III-331]					Percent Gcase Activation, 0.1 μM Test Compound (0.1 μM test compound): *** (greater than 20% Gcase activation); Percent Gcase Activation, 1 μM Test Compound (1 μM test compound): +++ (Gcase activation greater than 60%)
Cc1cc(N2CC(C(C)C)OC2=O)nc2c(C(=O)N[C@H](C3CC3)C(F)(F)F)cnn12 (some centres unmarked) [III-317]					Percent Gcase Activation, 0.1 μM Test Compound (0.1 μM test compound): ** (Gcase activation in the range of 10% up to 20%); Percent Gcase Activation, 1 μM Test Compound (1 μM test compound): +++ (Gcase activation greater than 60%)
COCc1cc(-c2cccc(OC)c2)nc2c(C(=O)NC(C)(C)C3CC3)cnn12 [III-79]	*** (greater than 20% Gcase activation)	+++ (Gcase activation greater than 60%)			
COc1ccc(F)cc1-c1cc(C)n2ncc(C(=O)NC(C)C(F)(F)F)c2n1 (centres unmarked) [III-194]			*** (greater than 20% Gcase activation)	+++ (Gcase activation greater than 60%)	
Cc1cc(C)n2ncc(C(=O)N[C@@H](C3CC3)C(F)(F)F)c2n1 [III-11]	** (Gcase activation in the range of 10% up to 20%)	+++ (Gcase activation greater than 60%)			
Cc1cc(-c2cccnc2F)nc2c(C(=O)N[C@H](C3CC3)C(F)(F)F)cnn12 [III-114]			*** (greater than 20% Gcase activation)	+++ (Gcase activation greater than 60%)	
C#CC(C)(C)NC(=O)c1cnn2c(C)cc(-c3cccc(OC)c3)nc12 [III-69]	*** (greater than 20% Gcase activation)	+++ (Gcase activation greater than 60%)			
Cc1cc(N2CCN(C(C)C)C2=O)nc2c(C(=O)N[C@@H](C3CC3)C(F)(F)F)cnn12 [III-326]					Percent Gcase Activation, 0.1 μM Test Compound (0.1 μM test compound): * (less than 10% Gcase activation); Percent Gcase Activation, 1 μM Test Compound (1 μM test compound): +++ (Gcase activation greater than 60%)
Cc1cc(-c2ccc(F)cc2C#N)nc2c(C(=O)N[C@@H](C)C3CC3)cnn12 [III-152]			*** (greater than 20% Gcase activation)	+++ (Gcase activation greater than 60%)	
CNc1cc(C)n2ncc(C(=O)N[C@@H](C)C3CC3)c2n1 [III-6]	* (less than 10% Gcase activation)	++ (Gcase activation in the range of 30% up to 60%)			
Cc1nc(-c2cc(C)n3ncc(C(=O)NC(C4CC4)C(F)(F)F)c3n2)co1 (centres unmarked) [III-249]			** (Gcase activation in the range of 10% up to 20%)	+++ (Gcase activation greater than 60%)	
CCc1cc(-c2ccccn2)n2ncc(C(=O)NC(C)C3CC3)c2n1 (centres unmarked) [III-48]	* (less than 10% Gcase activation)	++ (Gcase activation in the range of 30% up to 60%)			

Now from value to compound, other results behind:

Percent Gcase Activation, 0.1 μM Test Compound (0.1 μM test compound, Table 3A)	Percent Gcase Activation, 1 μM Test Compound (1 μM test compound, Table 3A)	Percent Gcase Activation, 0.1 μM Test Compound (test compound at 0.1 μM)	Percent Gcase Activation, 1 μM Test Compound (test compound at 1.0 μM)	Compound	further results
		*** (greater than 20% Gcase activation)	+++ (Gcase activation greater than 60%)	Cc1cncc(-c2cc(C)n3ncc(C(=O)N[C@H](C4CC4)C(F)(F)F)c3n2)c1 [III-276]	
		*** (greater than 20% Gcase activation)	+++ (Gcase activation greater than 60%)	COc1cncc(-c2cc(C)n3ncc(C(=O)N[C@H](C4CC4)C(F)(F)F)c3n2)c1 [III-266]	
		*** (greater than 20% Gcase activation)	+++ (Gcase activation greater than 60%)	Cc1cc(-c2ccc3scnc3c2)nc2c(C(=O)NC(C)C(F)(F)F)cnn12 (centres unmarked) [III-220]	
		*** (greater than 20% Gcase activation)	+++ (Gcase activation greater than 60%)	Cc1coc(-c2cc(C)n3ncc(C(=O)N[C@@H](C4CC4)C(F)(F)F)c3n2)n1 [III-256]	
		*** (greater than 20% Gcase activation)	+++ (Gcase activation greater than 60%)	COc1ccc(-c2cc(C)n3ncc(C(=O)NC(C4CC4)C(F)(F)F)c3n2)cn1 (centres unmarked) [III-268]	
		* (less than 10% Gcase activation)	+ (less than 30% Gcase activation)	Cc1cc(N2CCCN(C(C)C)C2=O)nc2c(C(=O)NC(C)C(F)(F)F)cnn12 (centres unmarked) [III-259]	
		*** (greater than 20% Gcase activation)	+++ (Gcase activation greater than 60%)	Cc1oc(C#N)cc1-c1cc(C)n2ncc(C(=O)N[C@@H](C3CC3)C(F)(F)F)c2n1 [III-244]	
